The record followed here is patent US20020156236A1, “Binding sites for phosphotyrosine binding domains” (priority 1995, published 2002).

The target in the assay is T1, PTB domain/c-erbB2 binding (GST-PTB domain of SHC; c-erbB2 from SKBR3 lysate) (Homo sapiens, UniProt P29353).
T1 construct: GST-PTB domain fusion proteins were expressed from recombinant baculovirus in sf9 cells; made in house; host or cells: Sf9 cells (recombinant baculovirus) for GST-PTB; c-erbB2 endogenous in SKBR3 cell lysate
T1 sequence (P29353 156-341): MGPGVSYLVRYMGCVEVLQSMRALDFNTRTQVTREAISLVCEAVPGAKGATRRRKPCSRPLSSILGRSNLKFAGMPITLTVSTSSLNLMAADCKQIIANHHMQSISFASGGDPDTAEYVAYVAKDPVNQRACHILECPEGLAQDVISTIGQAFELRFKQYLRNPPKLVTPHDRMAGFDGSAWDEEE
The assay can be described thus: biochemical. Conditions: Inhibition (relative inhibition scale of IC50).

Where a SMILES comes first, the peptide text is derived from it.

The term IC50 denotes the concentration needed to halve the response being measured. Low readings indicate greater potency in that assay, high ones weaker potency in that assay. For `CC(C)C[C@H](NC(=O)[C@H](CC(N)=O)NC(=O)[C@H](CC(=O)O)NC(=O)[C@H](Cc1ccccc1)NC(=O)[C@H](C)NC(=O)[C@@H]1CCCN1C(=O)[C@H](CO)NC(=O)[C@H](Cc1ccccc1)NC(=O)[C@H](C)NC(=O)[C@@H]1CCCN1)C(=O)N[C@@H](Cc1ccc(O)cc1)C(=O)N[C@@H](Cc1ccc(OP(=O)(O)O)cc1)C(=O)N[C@@H](Cc1c[nH]c2ccccc12)C(=O)N[C@@H](CC(=O)O)C(=O)N[C@@H](C)C(=O)N[C@@H](CC(N)=O)C(=O)N[C@@H](CO)C(=O)N[C@@H](CO)C(=O)N[C@@H](CCC(=O)O)C(=O)N[C@@H](CCC(N)=O)C(=O)NCC(=O)O` [PAFSPAFDNLY (pY) WDANSSEQG, PAFSPAFDNLY(pY)WDANSSEQG] (HELM PEPTIDE1{P.A.F.S.P.A.F.D.N.L.Y.[O=C([C@H](Cc1ccc(OP(=O)(O)O)cc1)N[*:1])[*:2]].W.D.A.N.S.S.E.Q.G}$$$$V2.0), the IC50 is 0.5 to 5 µM. The result for `CC(C)C[C@H](NC(=O)[C@H](CC(N)=O)NC(=O)[C@H](CC(=O)O)NC(=O)[C@H](Cc1ccccc1)NC(=O)[C@H](C)NC(=O)[C@@H]1CCCN1C(=O)[C@H](CO)NC(=O)[C@H](Cc1ccccc1)NC(=O)[C@H](C)NC(=O)[C@@H]1CCCN1)C(=O)N[C@@H](Cc1ccc(O)cc1)C(=O)N[C@@H](Cc1ccc(OP(=O)(O)O)cc1)C(=O)N[C@@H](Cc1c[nH]c2ccccc12)C(=O)N[C@@H](CC(=O)O)C(=O)N[C@@H](CC(=O)O)C(=O)N[C@@H](CC(N)=O)C(=O)N[C@@H](CO)C(=O)N[C@@H](CO)C(=O)N[C@@H](CCC(=O)O)C(=O)N[C@@H](CCC(N)=O)C(=O)NCC(=O)O` [PAFSPAFDNLY (pY) WDDNSSEQG, PAFSPAFDNLY(pY)WDDNSSEQG] (HELM PEPTIDE1{P.A.F.S.P.A.F.D.N.L.Y.[O=C([C@H](Cc1ccc(OP(=O)(O)O)cc1)N[*:1])[*:2]].W.D.D.N.S.S.E.Q.G}$$$$V2.0) reads 0.5 to 5 µM; that for `CC(C)C[C@H](NC(=O)[C@H](CC(N)=O)NC(=O)[C@H](CC(=O)O)NC(=O)[C@H](Cc1ccccc1)NC(=O)[C@H](C)NC(=O)[C@@H]1CCCN1C(=O)[C@H](CO)NC(=O)[C@H](Cc1ccccc1)NC(=O)[C@H](C)NC(=O)[C@@H]1CCCN1)C(=O)N[C@@H](Cc1ccc(O)cc1)C(=O)N[C@@H](Cc1ccc(OP(=O)(O)O)cc1)C(=O)N[C@@H](Cc1c[nH]c2ccccc12)C(=O)N[C@@H](CC(=O)O)C(=O)N[C@@H](CC(N)=O)C(=O)N[C@@H](CC(N)=O)C(=O)N[C@@H](CO)C(=O)N[C@@H](CO)C(=O)N[C@@H](CCC(=O)O)C(=O)N[C@@H](CCC(N)=O)C(=O)NCC(=O)O` [PAFSPAFDNLY (pY) WDNNSSEQG, PAFSPAFDNLY(pY)WDNNSSEQG] (HELM PEPTIDE1{P.A.F.S.P.A.F.D.N.L.Y.[O=C([C@H](Cc1ccc(OP(=O)(O)O)cc1)N[*:1])[*:2]].W.D.N.N.S.S.E.Q.G}$$$$V2.0), 0.5 to 5 µM. The result for `CC(C)C[C@H](NC(=O)[C@H](CC(N)=O)NC(=O)[C@H](CC(=O)O)NC(=O)[C@H](Cc1ccccc1)NC(=O)[C@H](C)NC(=O)[C@@H]1CCCN1C(=O)[C@H](CO)NC(=O)[C@H](Cc1ccccc1)NC(=O)[C@H](C)NC(=O)[C@@H]1CCCN1)C(=O)N[C@@H](Cc1ccc(O)cc1)C(=O)N[C@@H](Cc1ccc(OP(=O)(O)O)cc1)C(=O)N[C@@H](Cc1c[nH]c2ccccc12)C(=O)N[C@@H](CC(=O)O)C(=O)N[C@@H](CCC(N)=O)C(=O)N[C@@H](C)C(=O)N[C@@H](CO)C(=O)N[C@@H](CO)C(=O)N[C@@H](CCC(=O)O)C(=O)N[C@@H](CCC(N)=O)C(=O)NCC(=O)O` [PAFSPAFDNLY (pY) WDQASSEQG, PAFSPAFDNLY(pY)WDQASSEQG] (HELM PEPTIDE1{P.A.F.S.P.A.F.D.N.L.Y.[O=C([C@H](Cc1ccc(OP(=O)(O)O)cc1)N[*:1])[*:2]].W.D.Q.A.S.S.E.Q.G}$$$$V2.0) reads 0.5 to 5 µM; that for `CC(C)C[C@H](NC(=O)[C@H](CC(N)=O)NC(=O)[C@H](CC(=O)O)NC(=O)[C@H](Cc1ccccc1)NC(=O)[C@H](C)NC(=O)[C@@H]1CCCN1C(=O)[C@H](CO)NC(=O)[C@H](Cc1ccccc1)NC(=O)[C@H](C)NC(=O)[C@@H]1CCCN1)C(=O)N[C@@H](Cc1ccc(O)cc1)C(=O)N[C@@H](Cc1ccc(OP(=O)(O)O)cc1)C(=O)N[C@@H](Cc1c[nH]c2ccccc12)C(=O)N[C@@H](CC(=O)O)C(=O)N[C@@H](CCC(N)=O)C(=O)N[C@@H](CC(N)=O)C(=O)N[C@@H](C)C(=O)N[C@@H](CO)C(=O)N[C@@H](CCC(=O)O)C(=O)N[C@@H](CCC(N)=O)C(=O)NCC(=O)O` [PAFSPAFDNLY (pY) WDQNASEQG, PAFSPAFDNLY(pY)WDQNASEQG] (HELM PEPTIDE1{P.A.F.S.P.A.F.D.N.L.Y.[O=C([C@H](Cc1ccc(OP(=O)(O)O)cc1)N[*:1])[*:2]].W.D.Q.N.A.S.E.Q.G}$$$$V2.0), 0.5 to 5 µM; that for `CC(C)C[C@H](NC(=O)[C@H](CCC(N)=O)NC(=O)[C@H](CC(=O)O)NC(=O)[C@H](Cc1ccccc1)NC(=O)[C@H](C)NC(=O)[C@@H]1CCCN1C(=O)[C@H](CO)NC(=O)[C@H](Cc1ccccc1)NC(=O)[C@H](C)NC(=O)[C@@H]1CCCN1)C(=O)N[C@@H](Cc1ccc(O)cc1)C(=O)N[C@@H](Cc1ccc(OP(=O)(O)O)cc1)C(=O)N[C@@H](Cc1c[nH]c2ccccc12)C(=O)N[C@@H](CC(=O)O)C(=O)N[C@@H](CCC(N)=O)C(=O)N[C@@H](CC(N)=O)C(=O)N[C@@H](CO)C(=O)N[C@@H](CO)C(=O)N[C@@H](CCC(=O)O)C(=O)N[C@@H](CCC(N)=O)C(=O)NCC(=O)O` [PAFSPAFDQLY (pY) WDQNSSEQG] (HELM PEPTIDE1{P.A.F.S.P.A.F.D.Q.L.Y.[O=C([C@H](Cc1ccc(OP(=O)(O)O)cc1)N[*:1])[*:2]].W.D.Q.N.S.S.E.Q.G}$$$$V2.0), more than 50 µM. In turn, `CC(C)C[C@H](NC(=O)[C@H](CC(N)=O)NC(=O)[C@H](CO)NC(=O)[C@H](Cc1ccccc1)NC(=O)[C@H](C)NC(=O)[C@@H]1CCCN1C(=O)[C@H](CO)NC(=O)[C@H](Cc1ccccc1)NC(=O)[C@H](C)NC(=O)[C@@H]1CCCN1)C(=O)N[C@@H](Cc1ccc(O)cc1)C(=O)N[C@@H](Cc1ccc(OP(=O)(O)O)cc1)C(=O)N[C@@H](Cc1c[nH]c2ccccc12)C(=O)N[C@@H](CC(=O)O)C(=O)N[C@@H](CCC(N)=O)C(=O)N[C@@H](CC(N)=O)C(=O)N[C@@H](CO)C(=O)N[C@@H](CO)C(=O)N[C@@H](CCC(=O)O)C(=O)N[C@@H](CCC(N)=O)C(=O)NCC(=O)O` [PAFSPAFSNLY (pY) WDQNSSEQG, PAFSPAFSNLY(pY)WDQNSSEQG] (HELM PEPTIDE1{P.A.F.S.P.A.F.S.N.L.Y.[O=C([C@H](Cc1ccc(OP(=O)(O)O)cc1)N[*:1])[*:2]].W.D.Q.N.S.S.E.Q.G}$$$$V2.0) returned an IC50 of 5 to 50 µM.
